Measurements from EP0001395A2, “Substituted N-phenyl-2,5-pyrrolidinones, method for their preparation and their use as fungicides” (BAYER AG, priority 1977, dated 1979).

Tests used:
Pellicularia sasakii = experiment: Pellicularia test (rice plants); assay type: in vivo; conditions: spray on rice plants, infection of leaf sheaths rated after 5 to 8 days; compared with Zinksalz der Athylenbis-dithiocarbamidsäure
Description: • Lösungsmittel: 11,75 Gewichtsteile Aceton • Dispergiermittel: 0,75 Gewichtsteile Alkyl-arylpolyglykoläther • Wasser: 987,50 Gewichtsteile • andere Zusätze: - Gewichtsteile -
Man vermischt die für die gewünschte Wirkstoffkonzentration in der Spritzflüssigkeit nötige Wirkstoffmenge mit der angegebenen Menge des Lösungsmittels und des Dispergiermittels und verdünnt das Konzentrat mit der angegebenen Menge Wasser.
Mit der Spritzflüssigkeit bespritzt man 30 etwa 2-4 Wochen alte Reispflanzen bis zur Tropfnässe. Die Pflanzen verbleiben bis zum Abtrocknen in einem Gewächshaus bei Temperaturen von 22 bis 24°C und einer relativen Luftfeuchtigkeit von etwa 70 %. Die Pflanzen werden mit einer auf Malzagar gezogenen Kultur von Pellicularia sasakii inokuliert und bei 28 bis 30°C sowie 100 % relativer Luftfeuchtigkeit aufgestellt.
Bei den mit Pellicularia sasakii infizierten Pflanzen wird der Befall nach 5 bis 8 Tagen an den Blattscheiden ebenfalls im Verhältnis zur unbehandelten, aber infizierten Kontrolle bestimmt. Die Auswertung erfolgt in Wertzahlen von 1 bis 9. 1 bedeutet 100%ige Wirkung, 3= gute Wirkung, 5 = mäßige Wirkung und 9 = keine Wirkung.

Botrytis cinerea = experiment: Botrytis test (beans) / protective; assay type: in vivo; conditions: protective spray on Phaseolus vulgaris, inoculation after 24 h, lesion size rated 3 days after inoculation; compared with Tetramethyl-thiuramidisulfid
Description: Botrytis-Test (Bohnen) / protektiv
• Lösungsmittel: 4,7 Gewichtsteile Aceton • Dispergiermittel: 0,3 Gewichtsteile Alkyl-arylpolyglykoläther • Wasser: 95,0 Gewichtsteile
Man vermischt die für die gewünschte Wirkstoffkonzentration in der Spritzflüssigkeit nötige Wirkstoffmenge mit der angegebenen Menge des Lösungsmittels und verdünnt das Konzentrat mit der angegebenen Menge Wasser, welches die genannten Zusätze enthält.
Mit der Spritzflüssigkeit bespritzt man Pflanzen von Phaseolus vulgaris im 2-Blattstadium bis zur Tropfnässe. Nach 24 Stunden werden auf jedes Blatt 2 kleine mit Botrytis cinerea bewachsene Agarstückchen aufgelegt. Die inokulierten Pflanzen werden in einer abgedunkelten, feuchten Kammer bei 20°C aufgestellt. 3 Tage nach der Inokulation wird die Größe der Befallsflecken auf den Blättern bonitiert.
Die erhaltenen Boniturwerte werden auf Prozent Befall umgerechnet. 0 % bedeutet keinen Befall, 100 % bedeutet, daß der Befallsfleck vollständig ausgebildet ist.

With `O=C1CC(C2C=CCC2)C(=O)N1c1cc(Cl)cc(Cl)c1` (centres unmarked) [Beispiel 1, N-(3,5-Dichlorphenyl)-△ ^2-cyclopenten-1-yl-bernsteinsäureimid] the Wirkung (Pellicularia sasakii) was “gute, dem bekannten Zinksalz der Athylenbis-dithiocarbamidsäure überlegene Wirkung” and the Wirkung (Botrytis cinerea) was “gute, dem bekannten Tetramethyl-thiuramidisulfid überlegene Wirkung”.
